Measured values reported in US10584115B2, “Substituted pyridine and pyrazine BMI-1 inhibitors” (PTC Therapeutics, Inc., priority 2013, dated 2020).

Tested on: Bmi-1 protein
Experiment: Sandwich ELISA Assay (Bmi-1 protein level in HT-1080 cells after compound treatment)
Format: cell-based
Conditions: Table 1, Bmi-1 sandwich ELISA, read-out: ELISA EC50 value for Bmi-1 protein
How it was run: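 Sandwich ELISA quantified Bmi-1 protein against recombinant standard (125–8000 pg/mL), with lysates captured overnight at 4 °C and signal by HRP/TMB at 450 nm (570 nm reference). Lysates came from HT-1080 cells incubated 40–48 h with test compounds in 0.5% DMSO.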

| Structure (SMILES) | EC50 [nM] |
| --- | --- |
| CCc1nn2ccccc2c1-c1cncc(Nc2ccc(OC(F)F)cc2)n1 [compound 521, N-[4-(difluoromethoxy)phenyl]-6-(2-ethylpyrazolo[1,5-a]pyridin-3-yl)pyrazin-2-amine] | 1 to 10 |
| Cc1nc2ccccc2n1-c1cncc(Nc2ccc(C(F)(F)F)c(CN)c2)n1 [compound 524, N-[3-(aminomethyl)-4-(trifluoromethyl)phenyl]-6-(2-methyl-1H-benzimidazol-1-yl)pyrazin-2-amine] | 100 to 3000 |
| Cc1nc2ccccc2n1-c1c[n+]([O-])cc(Nc2ccc(C(F)(F)F)cc2)n1 [compound 525, 6-(2-methyl-1H-benzimidazol-1-yl)-N-[4-(trifluoromethyl)phenyl]pyrazin-2-amine 4-oxide] | 10 to 100 |
| CCc1nn2ccccc2c1-c1cc(C#N)cc(Nc2ccc(OC(F)F)c(F)c2)n1 [compound 528, 2-{[4-(difluoromethoxy)-3-fluorophenyl]amino}-6-(2-ethylpyrazolo[1,5-a]pyridin-3-yl)pyridine-4-carbonitrile] | 10 to 100 |
| CCc1nn2ccccc2c1-c1cc(C#N)cc(Nc2ccc(OC(F)(F)F)cc2)n1 [compound 529, 2-(2-ethylpyrazolo[1,5-a]pyridin-3-yl)-6-{[4-(trifluoromethoxy)phenyl]amino}pyridine-4-carbonitrile] | 100 to 3000 |
| Cc1nc2ccccc2n1-c1c[n+]([O-])cc(Nc2ccc(OC(F)F)cc2)n1 [compound 531, N-[4-(difluoromethoxy)phenyl]-6-(2-methyl-1H-benzimidazol-1-yl)pyrazin-2-amine 4-oxide] | 10 to 100 |
| [O-][n+]1cc(Nc2ccc(C(F)(F)F)cc2)nc(-n2c(C3CC3)nc3ncc(F)cc32)c1 [compound 533, 6-(2-cyclopropyl-6-fluoro-1H-imidazo[4,5-b]pyridin-1-yl)-N-[4-(trifluoromethyl)phenyl]pyrazin-2-amine 4-oxide] | 10 to 100 |
| Cc1nn2ccc(F)cc2c1-c1cncc(Nc2ccc(C(F)(F)F)cc2)n1 [compound 537, 6-(5-fluoro-2-methylpyrazolo[1,5-a]pyridin-3-yl)-N-[4-(trifluoromethyl)phenyl]pyrazin-2-amine] | 10 to 100 |
| CCc1nc2ncc(Cl)cc2n1-c1cncc(Nc2ccc(OC(F)F)c(F)c2)n1 [compound 546, 6-(6-chloro-2-ethyl-1H-imidazo[4,5-b]pyridin-1-yl)-N-[4-(difluoromethoxy)-3-fluorophenyl]pyrazin-2-amine] | 1 to 10 |
| Cc1nc2ncc(Nc3ccc(OC(F)F)cc3)cc2n1-c1cncc(Nc2ccc(OC(F)F)cc2)n1 [compound 547, N-[4-(difluoromethoxy)phenyl]-1-(6-{[4-(difluoromethoxy)phenyl]amino}pyrazin-2-yl)-2-methyl-1H-imidazo[4,5-b]pyridin-6-amine] | 100 to 3000 |
| CCc1nc2ncc(Cl)cc2n1-c1cncc(Nc2ccccc2)n1 [compound 549] | 100 to 3000 |
| COc1cccc(Nc2cncc(-n3c(C)nc4ccc(F)cc43)n2)c1 [compound 559, 6-(6-fluoro-2-methyl-1H-benzimidazol-1-yl)-N-(3-methoxyphenyl)pyrazin-2-amine] | 100 to 3000 |
| COc1ccc(Nc2cncc(-n3c(C)nc4ccccc43)n2)cc1 [compound 561, N-(4-methoxyphenyl)-6-(2-methyl-1H-benzimidazol-1-yl)pyrazin-2-amine] | 1 to 10 |
| Cc1nn2ccccc2c1-c1cncc(Nc2ccccc2)n1 [compound 564, 6-(2-methylpyrazolo[1,5-a]pyridin-3-yl)-N-phenylpyrazin-2-amine] | 100 to 3000 |
| COc1ccc(Nc2cncc(-c3c(C)nn4ccccc34)n2)cc1 [compound 565, N-(4-methoxyphenyl)-6-(2-methylpyrazolo[1,5-a]pyridin-3-yl)pyrazin-2-amine] | < 1 |
| Cc1ccc(Nc2cncc(-c3c(C)nn4ccccc34)n2)cc1 [compound 566, N-(4-methylphenyl)-6-(2-methylpyrazolo[1,5-a]pyridin-3-yl)pyrazin-2-amine] | 1 to 10 |

More lines, now with the values ahead:

| EC50 [nM] | Structure (SMILES) |
| --- | --- |
| 10 to 100 | CCc1nn2ccccc2c1-c1cncc(Nc2ccc(OC(F)F)c(F)c2)n1 [compound 522, N-[4-(difluoromethoxy)-3-fluorophenyl]-6-(2-ethylpyrazolo[1,5-a]pyridin-3-yl)pyrazin-2-amine] |
| 10 to 100 | CCc1nn2ccccc2c1-c1cncc(Nc2ccc(OC(F)(F)F)cc2)n1 [compound 523, 6-(2-ethylpyrazolo[1,5-a]pyridin-3-yl)-N-[4-(trifluoromethoxy)phenyl]pyrazin-2-amine] |
| 10 to 100 | CCc1nn2ccccc2c1-c1cc(C#N)cc(Nc2ccc(C(F)(F)F)cc2)n1 [compound 526, 2-(2-ethylpyrazolo[1,5-a]pyridin-3-yl)-6-{[4-(trifluoromethyl)phenyl]amino}pyridine-4-carbonitrile] |
| 10 to 100 | CCc1nn2ccccc2c1-c1cc(C#N)cc(Nc2ccc(OC(F)F)cc2)n1 [compound 527, 2-{[4-(difluoromethoxy)phenyl]amino}-6-(2-ethylpyrazolo[1,5-a]pyridin-3-yl)pyridine-4-carbonitrile] |
| 10 to 100 | [O-][n+]1cc(Nc2ccc(OC(F)F)cc2)nc(-n2c(C3CC3)nc3cc(F)c(F)cc32)c1 [compound 530, 6-(2-cyclopropyl-5,6-difluoro-1H-benzimidazol-1-yl)-N-[4-(difluoromethoxy)phenyl]pyrazin-2-amine 4-oxide] |
| 10 to 100 | Cc1nc2ccc(F)cc2n1-c1c[n+]([O-])cc(Nc2ccc(C(F)(F)F)cc2)n1 [compound 532, 6-(6-fluoro-2-methyl-1H-benzimidazol-1-yl)-N-[4-(trifluoromethyl)phenyl]pyrazin-2-amine 4-oxide] |
| 10 to 100 | [O-][n+]1cc(Nc2ccc(C(F)(F)F)cc2)nc(-c2c(C(F)(F)F)nc3ccccn23)c1 [compound 534, 6-[2-(trifluoromethyl)imidazo[1,2-a]pyridin-3-yl]-N-[4-(trifluoromethyl)phenyl]pyrazin-2-amine 4-oxide] |
| 1 to 10 | [O-][n+]1cc(Nc2ccc(C(F)(F)F)cc2)nc(-c2c(C(F)(F)F)nc3ccc(F)cn23)c1 [compound 538, 6-[6-fluoro-2-(trifluoromethyl)imidazo[1,2-a]pyridin-3-yl]-N-[4-(trifluoromethyl)phenyl]pyrazin-2-amine 4-oxide] |
| 10 to 100 | CCc1nn2ccc(Cl)cc2c1-c1cncc(Nc2ccc(C(F)(F)F)cc2)n1 [compound 539, 6-(5-chloro-2-ethylpyrazolo[1,5-a]pyridin-3-yl)-N-[4-(trifluoromethyl)phenyl]pyrazin-2-amine] |
| < 1 | Cc1nc2ncc(Cl)cc2n1-c1cncc(Nc2ccc(OC(F)F)cc2)n1 [compound 540, 6-(6-chloro-2-methyl-1H-imidazo[4,5-b]pyridin-1-yl)-N-[4-(difluoromethoxy)phenyl]pyrazin-2-amine] |
| 1 to 10 | Cc1nc2ncc(Cl)cc2n1-c1cncc(Nc2ccc(OC(F)F)c(F)c2)n1 [compound 541, 6-(6-chloro-2-methyl-1H-imidazo[4,5-b]pyridin-1-yl)-N-[4-(difluoromethoxy)-3-fluorophenyl]pyrazin-2-amine] |
| 10 to 100 | Cc1nc2ncc(Cl)cc2n1-c1cncc(Nc2ccc(OC(F)(F)F)cc2)n1 [compound 542, 6-(6-chloro-2-methyl-1H-imidazo[4,5-b]pyridin-1-yl)-N-[4-(trifluoromethoxy)phenyl]pyrazin-2-amine] |
| 100 to 3000 | CCc1nc2ncc(Cl)cc2n1-c1cncc(Nc2ccc(C(F)(F)F)cc2)n1 [compound 543, 6-(6-chloro-2-ethyl-1H-imidazo[4,5-b]pyridin-1-yl)-N-[4-(trifluoromethyl)phenyl]pyrazin-2-amine] |
| < 1 | CCc1nc2ncc(Cl)cc2n1-c1cncc(Nc2ccc(OC(F)F)cc2)n1 [compound 544, 6-(6-chloro-2-ethyl-1H-imidazo[4,5-b]pyridin-1-yl)-N-[4-(difluoromethoxy)phenyl]pyrazin-2-amine] |
| 100 to 3000 | CCc1nc2ncc(Nc3ccc(OC(F)F)cc3)cc2n1-c1cncc(Nc2ccc(OC(F)F)cc2)n1 [compound 545, N-[4-(difluoromethoxy)phenyl]-1-(6-{[4-(difluoromethoxy)phenyl]amino}pyrazin-2-yl)-2-ethyl-1H-imidazo[4,5-b]pyridin-6-amine] |
| 10 to 100 | CCc1nc2ncc(Cl)cc2n1-c1cncc(Nc2ccc(OC(F)(F)F)cc2)n1 [compound 548, 6-(6-chloro-2-ethyl-1H-imidazo[4,5-b]pyridin-1-yl)-N-[4-(trifluoromethoxy)phenyl]pyrazin-2-amine] |
| 100 to 3000 | CCc1nc2ncc(Nc3ccc(OC(F)F)c(F)c3)cc2n1-c1cncc(Nc2ccc(OC(F)F)c(F)c2)n1 [compound 550, N-[4-(difluoromethoxy)-3-fluorophenyl]-1-(6-{[4-(difluoromethoxy)-3-fluorophenyl]amino}pyrazin-2-yl)-2-ethyl-1H-imidazo[4,5-b]pyridin-6-amine] |
| 1 to 10 | COc1ccc(Nc2cncc(-n3c(C)nc4ccc(F)cc43)n2)cc1 [compound 553, 6-(6-fluoro-2-methyl-1H-benzimidazol-1-yl)-N-(4-methoxyphenyl)pyrazin-2-amine] |
| 10 to 100 | Cc1nc2ccc(F)cc2n1-c1cncc(Nc2ccc(Cl)cc2)n1 [compound 554, N-(4-chlorophenyl)-6-(6-fluoro-2-methyl-1H-benzimidazol-1-yl)pyrazin-2-amine] |
| 100 to 3000 | COc1cccc(Nc2cncc(-n3c(C)nc4ccccc43)n2)c1 [compound 557, N-(3-methoxyphenyl)-6-(2-methyl-1H-benzimidazol-1-yl)pyrazin-2-amine] |
| 1 to 10 | Cc1ccc(Nc2cncc(-n3c(C)nc4ccccc43)n2)cc1 [compound 562, 6-(2-methyl-1H-benzimidazol-1-yl)-N-(4-methylphenyl)pyrazin-2-amine] |
| 10 to 100 | Cc1ccc(Nc2cncc(-n3c(C)nc4ccccc43)n2)c(N)c1 [compound 563, 4-methyl-N^1-[6-(2-methyl-1H-benzimidazol-1-yl)pyrazin-2-yl]benzene-1,2-diamine] |
